Tested on: β-galactosidase
Experiment: Testing effects of serum on native enzyme activity with DUG
Type: biochemical
Conditions: 0.02 mM DUG, 37°, 10 second delay, 30 second read
Description: (2) Testing effects of serum on native enzyme activity with DUG:
The procedure of c (1) above was followed using 50 µl of 1.75×PBS,N3, Mg+0.5% RSA and 50 μ1 β-galactosidase in place of serum and conjugate, respectively, and […] of 0.02mM DUG in 1.75×PBX, N3, Mg +0.5% RSA.
The fluorescence rate was measured at 37° , 10 second delay, 30 second read.

β-galactosidase: native active enzyme used as label in the immunoassay
ΔF/30 sec., Buffer (native enzyme in buffer): 250 ΔF/30 sec.
ΔF/30 sec., Serum (native enzyme in serum): 230 ΔF/30 sec.
